# From patent publication US20060276464A1, “Diarylsulfone sulfonamides and use thereof” (Wyeth, priority 2005, published 2006)
# Where two headings read alike, the source gives them in different places.
# Target: T1, SFRP-1 (Homo sapiens, UniProt Q8N474)
# T1 sequence (Q8N474 32-314): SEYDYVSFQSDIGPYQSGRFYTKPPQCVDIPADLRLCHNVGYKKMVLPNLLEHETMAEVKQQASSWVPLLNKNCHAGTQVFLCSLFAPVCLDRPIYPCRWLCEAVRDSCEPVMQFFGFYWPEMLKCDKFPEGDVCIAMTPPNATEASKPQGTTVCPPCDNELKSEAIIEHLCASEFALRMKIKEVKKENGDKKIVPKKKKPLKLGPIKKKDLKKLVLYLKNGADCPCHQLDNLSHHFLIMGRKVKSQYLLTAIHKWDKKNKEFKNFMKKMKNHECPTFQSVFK
# Assay: Cell-based assay for in vitro measurement of SFRP-1/SARP2 antagonist activity (U2OS cells co-transfected with 16x TCF-tk-Luciferase reporter, Wnt and hSFRP-1);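 also: U2OS cells co-transfected with a TCF-tk luciferase reporter, a Wnt vector, hSFRP-1 or empty vector and CMV-βgal, luciferase luminescence read in cell lysates alongside βgal activity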
# Conditions: U2OS
# [1] = read-out: Fold Induction with SFRP-1, Conc 15 μM, with SFRP-1, fold induction over SFRP-1 control, single dose
# [2] = read-out: Fold Induction without SFRP-1, Conc 15 μM, without SFRP-1, single dose
Compound,fold induction at 15 µM [1],fold induction at 15 µM [2],"fold induction at 60 µM (read-out: Fold Induction with SFRP-1, Conc 60 μM, with SFRP-1, fold induction over SFRP-1 control, single dose)","fold induction at 60 µM (read-out: Fold Induction without SFRP-1, Conc 60 μM, without SFRP-1, single dose)"
"Cc1ccc(S(=O)(=O)c2ccccc2)cc1S(=O)(=O)N1CCN(CC(=O)N2CCCC2)CC1 [Example 279, 1-{[2-methyl-5-(phenylsulfonyl)phenyl]sulfonyl}-4-(2-oxo-2-pyrrolidin-1-ylethyl)piperazine]",1.9,1,–,–
"CCN(CC)CCN1CCN(S(=O)(=O)c2cc(S(=O)(=O)c3ccccc3)ccc2C)CC1 [Example 280, N,N-diethyl-N-[2-(4-{[2-methyl-5-(phenylsulfonyl)phenyl]sulfonyl}piperazin-1-yl)ethyl]amine]",2.7,1.5,–,–
"Cc1ccc(S(=O)(=O)c2ccccc2)cc1S(=O)(=O)N1CCN(CCN2CCOCC2)CC1 [Example 281, 4-[2-(4-{[2-methyl-5-(phenylsulfonyl)phenyl]sulfonyl}piperazin-1-yl)ethyl]morpholine]",2.8,1.3,–,–
"Cc1ccc(S(=O)(=O)c2ccccc2)cc1S(=O)(=O)N1CCN(CCN2CCCC2)CC1 [Example 282, 1-{[2-methyl-5-(phenylsulfonyl)phenyl]sulfonyl}-4-(2-pyrrolidin-1-ylethyl)piperazine]",2.4,1.6,–,–
"Cc1ccc(S(=O)(=O)c2ccccc2)cc1S(=O)(=O)N1CCN(CCCN2CCOCC2)CC1 [Example 283, 4-[3-(4-{[2-methyl-5-(phenylsulfonyl)phenyl]sulfonyl}piperazin-1-yl)propyl]morpholine]",1.8,1.3,–,–
"CCc1ccc(S(=O)(=O)c2ccccc2)cc1S(=O)(=O)N(C)CCc1ccccc1 [Example 284, 2-ethyl-N-methyl-N-(2-phenylethyl)-5-(phenylsulfonyl)benzenesulfonamide]",1.1,1.2,–,–
"CCc1ccc(S(=O)(=O)c2ccccc2)cc1S(=O)(=O)N1CCN(CC(=O)N2CCCC2)CC1 [Example 285, 1-{[2-ethyl-5-(phenylsulfonyl)phenyl]sulfonyl}-4-(2-oxo-2-pyrrolidin-1-ylethyl)piperazine]",2,1.1,–,–
"CCc1ccc(S(=O)(=O)c2ccccc2)cc1S(=O)(=O)N1CCN(CCN(CC)CC)CC1 [Example 286, N,N-diethyl-N-[2-(4-{[2-ethyl-5-(phenylsulfonyl)phenyl]sulfonyl}piperazin-1-yl)ethyl]amine]",2,1.3,–,–
"CCc1ccc(S(=O)(=O)c2ccccc2)cc1S(=O)(=O)N1CCN(CCN2CCOCC2)CC1 [Example 287, 4-[2-(4-{[2-ethyl-5-(phenylsulfonyl)phenyl]sulfonyl}piperazin-1-yl)ethyl]morpholine]",2.1,1.2,–,–
"CCc1ccc(S(=O)(=O)c2ccccc2)cc1S(=O)(=O)N1CCN(CCN2CCCC2)CC1 [Example 288, 1-{[2-ethyl-5-(phenylsulfonyl)phenyl]sulfonyl}-4-(2-pyrrolidin-1-ylethyl)piperazine]",3.6,1.7,–,–
"CCc1ccc(S(=O)(=O)c2ccccc2)cc1S(=O)(=O)N1CCN(CCCN2CCOCC2)CC1 [Example 289, 4-[3-(4-{[2-ethyl-5-(phenylsulfonyl)phenyl]sulfonyl}piperazin-1-yl)propyl]morpholine]",2.3,1.1,–,–
"Cc1ccc(S(=O)(=O)c2ccccc2)cc1S(=O)(=O)NCCC1CCOCC1 [Example 299, 2-methyl-5-(phenylsulfonyl)-N-(2-tetrahydro-2H-pyran-4-ylethyl)benzenesulfonamide]",3.1,1.1,–,–
"CCc1ccc(S(=O)(=O)c2ccccc2)cc1S(=O)(=O)NC1CCOCC1 [Example 300, 2-ethyl-5-(phenylsulfonyl)-N-tetrahydro-2H-pyran-4-ylbenzenesulfonamide]",3.4,1.2,–,–
"CCc1ccc(S(=O)(=O)c2ccccc2)cc1S(=O)(=O)NCCC1CCOCC1 [Example 301, 2-ethyl-5-(phenylsulfonyl)-N-(2-tetrahydro-2H-pyran-4-ylethyl)benzenesulfonamide]",3.3,1.2,–,–
"Cc1c(S(=O)(=O)NCCc2ccccc2)cccc1S(=O)(=O)c1ccccc1 [Example 302, 2-methyl-N-(2-phenylethyl)-3-(phenylsulfonyl)benzenesulfonamide]",1.2,1.2,–,–

# Now from value to compound:
fold induction at 15 µM [1],fold induction at 15 µM [2],"fold induction at 60 µM (read-out: Fold Induction with SFRP-1, Conc 60 μM, with SFRP-1, fold induction over SFRP-1 control, single dose)","fold induction at 60 µM (read-out: Fold Induction without SFRP-1, Conc 60 μM, without SFRP-1, single dose)",Compound
1.9,0.8,–,–,"Cc1ccc(S(=O)(=O)c2ccc(Cl)cc2)cc1S(=O)(=O)NCCN1CCOCC1 [Example 290, 5-[(4-chlorophenyl)sulfonyl]-2-methyl-N-(2-morpholin-4-ylethyl)benzenesulfonamide]"
1.7,0.9,–,–,"Cc1ccc(S(=O)(=O)c2ccc(Cl)cc2)cc1S(=O)(=O)NCCc1ccccn1 [Example 291, 5-[(4-chlorophenyl)sulfonyl]-2-methyl-N-(2-pyridin-2-ylethyl)benzenesulfonamide]"
2.3,0.8,–,–,"Cc1ccc(S(=O)(=O)c2ccc(Cl)cc2)cc1S(=O)(=O)NCCCn1ccnc1 [Example 292, 5-[(4-chlorophenyl)sulfonyl]-N-[3-(1H-imidazol-1-yl)propyl]-2-methylbenzenesulfonamide]"
2.5,0.9,–,–,"Cc1ccc(S(=O)(=O)c2ccc(N=[N+]=[N-])cc2)cc1S(=O)(=O)NCCCn1ccnc1 [Example 293, 5-[(4-azidophenyl)sulfonyl]-N-[3-(1H-imidazol-1-yl)propyl]-2-methylbenzenesulfonamide]"
2.3,1.5,–,–,"Cc1ccc(S(=O)(=O)c2ccccc2)cc1S(=O)(=O)NCCc1c[nH]c2ccccc12 [Example 294, N-[2-(1H-indol-3-yl)ethyl]-2-methyl-5-(phenylsulfonyl)benzenesulfonamide]"
1.7,1,–,–,"CCN(C)c1ccc(S(=O)(=O)c2ccc(C)c(S(=O)(=O)NCCCn3ccnc3)c2)cc1 [Example 304, 5-({4-[ethyl(methyl)amino]phenyl}sulfonyl)-N-[3-(1H-imidazol-1-yl)propyl]-2-methylbenzenesulfonamide]"
1.8,1,–,–,"Cc1ccc(S(=O)(=O)c2ccc(N3CCCC3)cc2)cc1S(=O)(=O)NCCCn1ccnc1 [Example 305, N-[3-(1H-imidazol-1-yl)propyl]-2-methyl-5-[(4-pyrrolidin-1-ylphenyl)sulfonyl]benzenesulfonamide]"
–,–,1.3,0.9,"Cc1ccc(S(=O)(=O)NCCCn2ccnc2)cc1[S+]([O-])c1ccccc1 (centres unmarked) [Example 306, N-[3-(1H-imidazol-1-yl)propyl]-4-methyl-3-(phenylsulfinyl)benzenesulfonamide]"
2.5,0.9,–,–,"Cc1ccc(S(=O)(=O)c2ccc(F)cc2)cc1S(=O)(=O)NCCn1ccnc1 [Example 307, 5-[(4-fluorophenyl)sulfonyl]-N-[2-(1H-imidazol-1-yl)ethyl]-2-methylbenzenesulfonamide]"
2.3,0.9,–,–,"Cc1ccc(S(=O)(=O)c2ccc(F)cc2)cc1S(=O)(=O)NC1CCOCC1 [Example 308, 5-[(4-fluorophenyl)sulfonyl]-2-methyl-N-tetrahydro-2H-pyran-4-ylbenzenesulfonamide]"
1.9,0.9,–,–,"Cc1ccc(S(=O)(=O)c2ccc(F)cc2)cc1S(=O)(=O)NCCC1CCOCC1 [Example 309, 5-[(4-fluorophenyl)sulfonyl]-2-methyl-N-(2-tetrahydro-2H-pyran-4-ylethyl)benzenesulfonamide]"
1.6,0.9,–,–,"Cc1ccc(S(=O)(=O)c2ccc(N3CCCCC3)cc2)cc1S(=O)(=O)NCCCn1ccnc1 [Example 312, N-[3-(1H-imidazol-1-yl)propyl]-2-methyl-5-[(4-piperidin-1-ylphenyl)sulfonyl]benzenesulfonamide]"
1.8,1.3,–,–,"COc1ccc(S(=O)(=O)c2ccc(C)c(S(=O)(=O)NCCCn3ccnc3)c2)cc1 [Example 315, N-[3-(1H-imidazol-1-yl)propyl]-5-[(4-methoxyphenyl)sulfonyl]-2-methylbenzenesulfonamide]"
2.5,1.1,–,–,"COc1ccccc1S(=O)(=O)c1ccc(C)c(S(=O)(=O)NCCCn2ccnc2)c1 [Example 316, N-[3-(1H-imidazol-1-yl)propyl]-5-[(2-methoxyphenyl)sulfonyl]-2-methylbenzenesulfonamide]"
1.2,1.1,–,–,"Cc1ccc(S(=O)(=O)NCCCn2ccnc2)cc1S(=O)(=O)c1ccccc1 [Example 317, N-[3-(1H-imidazol-1-yl)propyl]-4-methyl-3-(phenylsulfonyl)benzenesulfonamide]"
2.6,0.9,–,–,"COc1cccc(S(=O)(=O)c2ccc(C)c(S(=O)(=O)NCCCn3ccnc3)c2)c1 [Example 323, N-[3-(1H-imidazol-1-yl)propyl]-5-[(3-methoxyphenyl)sulfonyl]-2-methylbenzenesulfonamide]"
